Here are results for 35 compounds from patent US20170121344A1 (Siga Technologies, Inc., priority 2009, published 2017).

Read-outs that look alike come from different tables or passages of the source.

The test system of this assay is Dengue-2 (Strain New Guinea C). Description: Viral yield assay against Dengue-2 in Vero cells. Format: cell-based, Dengue virus. The settings on record: Dengue virus. The method, then: Compounds that were active in the primary screen were tested for activity in viral yield assays. […] Vero cells in 12-well plates were infected with dengue-2 virus at a multiplicity of infection (MOI) of 0.1, treated with compound (or DMSO as a control), incubated at 37° C., harvested 48 hours post infection and titered on Vero cells as described above. The EC50 was calculated through ExcelFit. Activities against other serotypes of dengue virus were determined in a similar way.

Where [1] appears, read: DENV2, viral yield assay, Vero cells, MOI 0.1, 48 hours post infection, read-out: Activity (EC50 in μM) DENV-2.
Setting [2] is: Vero cells, MOI 0.1, harvested 48 hours post infection, read-out: Activity (EC50 class) against Dengue-2 Virus in Vero cells.
The mark [3] stands for this setting: Vero, 48 h, read-out: Activity (EC50 class) against Dengue-2 Virus in Vero cells.

Consider `CCCSc1nc2ccc(NC(=O)c3sc4nc(-c5cccc(OC)c5)ccc4c3N)cc2s1` [Compound 568, 3-amino-6-(3-methoxyphenyl)-N-(2-propylsulfanyl-1,3-benzothiazol-6-yl) thieno[2,3-b]pyridine-2-carboxamide], for which, under setting [1], the EC50 was under 5 µM.

On to `CCOc1cccc(NC(=O)c2sc3nc(-c4ccc(OC)c(OC)c4)ccc3c2N)c1` [Compound 582, 3-amino-6-(3,4-dimethoxyphenyl)-N-(3-ethoxyphenyl)thieno[2,3-b]pyridine-2-carboxamide], for which the EC50 (DENV2, Vero, 48 h, read-out: Activity (EC50 in μM) DENV-2) was under 5 µM.

Consider `Cc1cccc(NC(=O)c2sc3nc(N)c(C#N)c(-c4ccc(C(C)C)cc4)c3c2N)c1C` [Compound 143, 3,6-Diamino-5-cyano-4-(4-isopropyl-phenyl)-thieno[2,3-b]pyridine-2-carboxylic acid (2,3-dimethyl-phenyl)-amide], for which the EC50 under setting [2] was over 25 µM. In the case of `Nc1c(C(=O)N2CCCCC2)sc2nc3c(cc12)CCC3` [Compound 188, (3-Amino-6,7-dihydro-5H-cyclopenta[b]thieno[3,2-e]pyridin-2-yl)-piperidin-1-yl-methanone], under setting [2], the EC50 was over 25 µM. Same read-out and setting: then `CN1CCc2nc3sc(C(=O)Nc4cc(Br)ccc4Br)c(N)c3cc2C1` [Compound 63, 3-Amino-6-methyl-5,6,7,8-tetrahydro-thieno[2,3-b][1,6]naphthyridine-2-carboxylic acid (2,5-dibromo-phenyl)-amide], with under 5 µM.

As for `Cc1cc(C)c2c(N)c(C(=O)NCc3ccccc3)sc2n1` [Compound 260, 3-Amino-4,6-dimethyl-thieno[2,3-b]pyridine-2-carboxylic acid benzylamide], the 50% effective concentration (EC50) under setting [3] is over 25 µM. As for `CCOC(=O)c1cc2c(N)c(C(=O)Nc3cccc(C(F)(F)F)c3)sc2nc1N` [Compound 75, 3,6-Diamino-2-(3-trifluoromethyl-phenylcarbamoyl)-thieno[2,3-b]pyridine-5-carboxylic acid ethyl ester], the EC50 under setting [2] is 5 to 25 µM. Take `Nc1c(C(=O)Nc2ccccc2F)sc2nc(-c3ccc4c(c3)OCO4)ccc12` [Compound 538, 3-amino-6-(1,3-benzodioxol-5-yl)-N-(2-fluorophenyl)thieno[2,3-b]pyridine-2-carboxamide]: under setting [1], the EC50 was under 5 µM.

For `CN1CCc2nc3sc(C(=O)NCc4ccccc4)c(N)c3cc2C1` [Compound 106, 3-Amino-6-methyl-5,6,7,8-tetrahydro-thieno[2,3-b][1,6]naphthyridine-2-carboxylic acid benzylamide], under setting [3], the EC50 lay in the range of 5 to 25 µM.

Take `COc1ccc(Cl)c(NC(=O)c2sc3nc(-c4ccc5c(c4)OCO5)ccc3c2N)c1` [Compound 589, 3-amino-6-(1,3-benzodioxol-5-yl)-N-(2-chloro-5-methoxy-phenyl)thieno[2,3-b] pyridine-2-carboxamide]: under setting [1], the EC50 was under 5 µM.

On to `COCc1cc(C)nc2sc3c(=O)n(-c4ccc(C(C)=O)cc4)nnc3c12` [Compound 156, 3-(4-Acetyl-phenyl)-9-methoxymethyl-7-methyl-3H-pyrido[3′,2′:4,5]thieno[3,2-d][1,2,3]triazin-4-one], for which, under setting [2], the EC50 was over 25 µM. In the case of `CC1=NN(C(=O)c2sc3nc(-c4cccs4)cc(C(F)(F)F)c3c2C)C(O)(C(F)(F)F)C1` (centres unmarked) [Compound 387, [5-hydroxy-3-methyl-5-(trifluoromethyl)-4H-pyrazol-1-yl]-[3-methyl-6-(2-thienyl)-4-(trifluoromethyl)thieno[2,3-b]pyridin-2-yl]methanone], under setting [1], the EC50 fell in the range of 5 to 25 µM. On to `COC(=O)c1ccccc1NC(=O)c1sc2nc(N)c(C#N)cc2c1N` [Compound 133, 2-[(3,6-Diamino-5-cyano-thieno[2,3-b]pyridine-2-carbonyl)-amino]-benzoic acid methyl ester], for which the EC50 under setting [2] is over 25 µM. Turning to `Cc1cc(F)ccc1NC(=O)c1sc2nc(-c3ccc4c(c3)OCO4)ccc2c1N` [Compound 593, 3-amino-6-(1,3-benzodioxol-5-yl)-N-(4-fluoro-2-methyl-phenyl)thieno[2,3-b] pyridine-2-carboxamide], the EC50 under setting [1] is under 5 µM. Consider `CN1CCc2nc3sc(C(=O)Nc4ccccc4F)c(N)c3cc2C1` [Compound 38, 3-Amino-6-methyl-5,6,7,8-tetrahydro-thieno[2,3-b][1,6]naphthyridine-2-carboxylic acid (2-fluoro-phenyl)-amide], for which, under setting [2], the EC50 was under 5 µM. `CCN(CC)C(=O)c1sc2nc(-c3cccs3)cc(C(F)(F)F)c2c1N` [Compound 85, 3-Amino-6-thiophen-2-yl-4-trifluoromethyl-thieno[2,3-b]pyridine-2-carboxylic acid diethylamide]: the EC50 under setting [2] lay in the range of 5 to 25 µM.

For the compound `CCC1(C)Cc2c(c(N3CCOCC3)nc3sc4c(=O)[nH]cnc4c23)CO1` (centres unmarked) [Compound 261, 2-Ethyl-2-methyl-5-morpholin-4-yl-1,4-dihydro-2H,9H-3-oxa-7-thia-6,9,11-triaza-benzo[c]fluoren-8-one], under setting [2], the EC50 is over 25 µM. As for `CN1CCc2nc3sc(C(=O)Nc4ccc(Cl)cc4)c(N)c3cc2C1` [Compound 13, 3-Amino-6-methyl-5,6,7,8-tetrahydro-thieno[2,3-b][1,6]naphthyridine-2-carboxylic acid (4-chloro-phenyl)-amide], under setting [3], the EC50 is under 5 µM.

As to `COCc1cc(C)nc2sc(C(=O)Nc3ccc(Br)c(Cl)c3)c(N)c12` [Compound 197, 3-Amino-4-methoxymethyl-6-methyl-thieno[2,3-b]pyridine-2-carboxylic acid (4-bromo-3-chloro-phenyl)-amide], the EC50 under setting [3] is over 25 µM. Consider `COc1cccc(-c2ccc3c(N)c(C(=O)Nc4cc(C(F)(F)F)ccc4Cl)sc3n2)c1` [Compound 560, 3-amino-N-[2-chloro-5-(trifluoromethyl)phenyl]-6-(3-methoxyphenyl)thieno [2,3-b]pyridine-2-carboxamide], for which, under setting [1], the EC50 was under 5 µM. In the case of `Cc1c(C(=O)N(C)C2CCCC(C)C2)sc2nc(C(F)(F)F)ccc12` (centres unmarked) [Compound 399, N,3-dimethyl-N-(3-methylcyclohexyl)-6-(trifluoromethyl)thieno[2,3-b]pyridine-2-carboxamide], the half-maximal effective concentration (EC50) under setting [1] was under 5 µM. Consider `CC(=O)c1cccc(NC(=O)c2sc3nc(C)cc(C)c3c2N)c1` [Compound 256, 3-Amino-4,6-dimethyl-thieno[2,3-b]pyridine-2-carboxylic acid (3-acetyl-phenyl)-amide], for which the EC50 under setting [2] was over 25 µM. Turning to `NC(=O)c1sc2nccc(Nc3ccccc3)c2c1N` [Compound 158, 3-Amino-4-phenylamino-thieno[2,3-b]pyridine-2-carboxylic acid amide], the EC50 under setting [2] was over 25 µM. Still for that read-out and setting: then `CCN(CC)C(=O)c1sc2nc3c(cc2c1N)CN(C)CC3` [Compound 15, 3-Amino-6-methyl-5,6,7,8-tetrahydro-thieno[2,3-b][1,6]naphthyridine-2-carboxylic acid diethylamide], with under 5 µM; and `CN1CCc2nc3sc(C(=O)Nc4c(Cl)cccc4Cl)c(N)c3cc2C1` [Compound 109, 3-Amino-6-methyl-5,6,7,8-tetrahydro-thieno[2,3-b][1,6]naphthyridine-2-carboxylic acid (2,6-dichloro-phenyl)-amide], with 5 to 25 µM; and `COCc1cc(C)nc2sc(C(=O)Nc3ccccc3Cl)c(N)c12` [Compound 185, 3-Amino-4-methoxymethyl-6-methyl-thieno[2,3-b]pyridine-2-carboxylic acid (2-chloro-phenyl)-amide], with over 25 µM.

For the compound `Cc1ccc(NC(=O)c2sc3nc(-c4ccc(F)cc4)ccc3c2N)cc1C` [Compound 607, 3-amino-N-(3,4-dimethylphenyl)-6-(4-fluorophenyl)thieno[2,3-b]pyridine-2-carboxamide], under setting [1], the EC50 is under 5 µM. As to `COc1cc(-c2c(C#N)c(N)nc3sc(C(N)=O)c(N)c23)cc(OC)c1OC` [Compound 155, 3,6-Diamino-5-cyano-4-(3,4,5-trimethoxy-phenyl)-thieno[2,3-b]pyridine-2-carboxylic acid amide], the EC50 under setting [2] was over 25 µM. Regarding `COc1ccc(OC)c(NC(=O)c2sc3nc(-c4ccc(OC)c(OC)c4)ccc3c2N)c1` [Compound 518, 3-amino-N-(2,5-dimethoxyphenyl)-6-(3,4-dimethoxyphenyl)thieno[2,3-b]pyridine-2-carboxamide], the EC50 under setting [1] is under 5 µM. Consider `Cc1cc(C)c2c(N)c(C(=O)Nc3ccc4ccccc4c3)sc2n1` [Compound 83, 3-Amino-4,6-dimethyl-thieno[2,3-b]pyridine-2-carboxylic acid naphthalen-2-ylamide], for which the EC50 under setting [2] fell in the range of 5 to 25 µM.

In the case of `CC(=O)c1cc2c(N)c(C(=O)NC34CC5CC(CC(C5)C3)C4)sc2nc1C` [Compound 142, 5-Acetyl-3-amino-6-methyl-thieno[2,3-b]pyridine-2-carboxylic acid adamantan-1-ylamide], the EC50 under setting [2] is over 25 µM. For the compound `CN1CCc2nc3sc(C(=O)NCCc4ccccc4)c(N)c3cc2C1` [Compound 267, 3-Amino-6-methyl-5,6,7,8-tetrahydro-thieno[2,3-b][1,6]naphthyridine-2-carboxylic acid phenethyl-amide], the EC50 under setting [2] was over 25 µM.

Turning to `COCc1cc(C)nc2sc(C(=O)Nc3ccccc3)c(N)c12` [Compound 124, 3-Amino-4-methoxymethyl-6-methyl-thieno[2,3-b]pyridine-2-carboxylic acid phenylamide], the EC50 under setting [2] is over 25 µM. Consider `Cc1cc(C)c2c(C)c(C(=O)NCCC(=O)N3CCCC3)sc2n1` [Compound 405, 3,4,6-trimethyl-N-(3-oxo-3-pyrrolidin-1-yl-propyl)thieno[2,3-b]pyridine-2-carboxamide], for which the concentration giving a half-maximal response (EC50) under setting [1] is under 5 µM. `CN1CCc2nc3sc(C(=O)Nc4nncs4)c(N)c3cc2C1` [Compound 278, 3-Amino-6-methyl-5,6,7,8-tetrahydro-thieno[2,3-b][1,6]naphthyridine-2-carboxylic acid [1,3,4]thiadiazol-2-ylamide]: under setting [2], the EC50 is over 25 µM.
